From patent US11174287B2, “Central nervous system homing peptides and uses thereof” (UNIVERSITY OF MARYLAND, BALTIMORE, priority 2017, dated 2021)
Ends that are not written are not given here.

Tests used:
[1] = tested on: spleen, kidney, liver and lung tissue of normal mice; experiment: Peptide overlay assay, FITC-labeled peptide binding in various organs of normal mice; set-up: species or system mouse
Excerpt: (§1) The peptide sequences were synthesized by Genscript (NJ, USA) with at least 95% purity. For fluorescent peptides, fluorescein isothiocyanate (FITC) dye was conjugated at the amino terminus of peptides. The excitation/emission wavelengths for FITC were 490/520 nm.

[2] = tested on: spleen, kidney, liver and lung tissue of EAE mice; experiment: Peptide overlay assay, FITC-labeled peptide binding to various organs of EAE mice; set-up: species or system mouse
Excerpt: as §1

[3] = tested on: spinal cord and brain cerebellum of EAE mice; experiment: FITC-labeled peptide binding to spinal cord and brain cerebellum; set-up: species or system mouse; details: compared to scrambled peptide CSGRRGKSC
Excerpt: as §1

[4] = tested on: inflamed central nervous system (spinal cord, brain) of EAE mice; experiment: NIR imaging of brain and spinal cord after i.v. injection of Cy7-labeled peptide (IVIS Xenogen); type: in vivo, mouse; details: for accumulation (NIR signal) in the spinal cord: perfused
Experimental: The antigen was prepared by emulsifying the myelin oligodendrocyte glycoprotein (MOG) region of 35-55 peptide sequence with at least >98% purity based on mass spectrophotometry (CS Bio, CA, USA) with an equal volume of complete Freund's adjuvant (CFA) containing 5 mg/ml of heat killed desiccated M. tuberculosis-H37RA (Bacto, MI, USA). The suspension was thoroughly mixed to form a thick emulsion. Experimental autoimmune encephalomyelitis (EAE), which closely resembles human multiple sclerosis (MS) was induced in C57BL/6 mice by subcutaneous injection of 200 μg/MOG/mouse. In addition, 2 doses of 200-400 ng each of Pertussis toxin (Calbiochem, CA, USA) were administered i.p. after MOG injection at 0 and 48 hours.
Near Infrared (NIR) Cyanine 7 (Cy7) dye-labeled test peptide CRGGKRSSC (SEQ ID NO:14) or control peptide was injected into the tail vein of diseased (EAE) mice and naive (control) mice. The peptides were allowed to circulate for 24 hours. Thereafter, mice were euthanized, perfused extensively through the heart using PBS. Following that, the brain and spinal cord were removed and scanned for NIR imaging signals using IVIS Xenogen imaging System.

## CRAKGRDAC (cysteine pairing not given here; also: FITC label, site not given here) [CNS-homing peptide containing the RAK motif]
[1]
  binding of FITC-labeled peptide to spleen, kidney, liver and lung tissue: minimal binding
[2]
  binding of FITC-labeled peptide to spleen, kidney, liver and lung tissue: minimal binding except for lung

## CRGGKRSSC (cysteine pairing not given here; also: FITC label, site not given here) [CNS-homing peptide from CX7C phage library, denoted "KRSS"]
[3]
  binding of FITC-labeled peptide to spinal cord and cerebellum: significantly higher binding
[1]
  binding of FITC-labeled peptide to spleen, kidney, liver and lung tissue: minimal binding except for spleen
[2]
  binding of FITC-labeled peptide to spleen, kidney, liver and lung tissue: minimal binding
[4]; EAE mice versus normal mice
  homing when injected into the bloodstream: preferentially homed to inflamed spinal cord of EAE mice but not in normal mice

## KRSS-Cy7: Near Infrared cyanine 7 (Cy7) dye-labeled test peptide CRGGKRSSC (SEQ ID NO:14) (cysteine pairing not given here; also: Cy7 dye label, site not given here)
[4]; EAE mice versus control mice and control peptide, intensity relative to spinal cord, 24 hours
  NIR signal in the cerebellum: much lower in intensity
[4]; EAE mice, tail vein injection, 24 hours circulation
  accumulation (NIR signal) in the spinal cord: significantly higher accumulation
[4]; naive (control) mice, tail vein injection, 24 hours circulation
  accumulation (NIR signal) in the spinal cord: barely showed any detectable signal
[4]; tail vein injection, 24 hours circulation
  NIR signal in the cerebrum: no signal was detected
